From PMC4275348 (Molecular microbiology, 2014)
Numbering of substitutions follows the chain as printed.

Assays:
LuxN^H210Q = target: T1, LuxN^H210Q (Vibrio campbellii, UniProt A7MRY4, H210Q); test: Bioluminescence of V. harveyi XK006 carrying luxN H210Q; format: cell-based, Vibrio harveyi; settings: 1 μM AHL
T1 sequence (A7MRY4 1-849 H210Q): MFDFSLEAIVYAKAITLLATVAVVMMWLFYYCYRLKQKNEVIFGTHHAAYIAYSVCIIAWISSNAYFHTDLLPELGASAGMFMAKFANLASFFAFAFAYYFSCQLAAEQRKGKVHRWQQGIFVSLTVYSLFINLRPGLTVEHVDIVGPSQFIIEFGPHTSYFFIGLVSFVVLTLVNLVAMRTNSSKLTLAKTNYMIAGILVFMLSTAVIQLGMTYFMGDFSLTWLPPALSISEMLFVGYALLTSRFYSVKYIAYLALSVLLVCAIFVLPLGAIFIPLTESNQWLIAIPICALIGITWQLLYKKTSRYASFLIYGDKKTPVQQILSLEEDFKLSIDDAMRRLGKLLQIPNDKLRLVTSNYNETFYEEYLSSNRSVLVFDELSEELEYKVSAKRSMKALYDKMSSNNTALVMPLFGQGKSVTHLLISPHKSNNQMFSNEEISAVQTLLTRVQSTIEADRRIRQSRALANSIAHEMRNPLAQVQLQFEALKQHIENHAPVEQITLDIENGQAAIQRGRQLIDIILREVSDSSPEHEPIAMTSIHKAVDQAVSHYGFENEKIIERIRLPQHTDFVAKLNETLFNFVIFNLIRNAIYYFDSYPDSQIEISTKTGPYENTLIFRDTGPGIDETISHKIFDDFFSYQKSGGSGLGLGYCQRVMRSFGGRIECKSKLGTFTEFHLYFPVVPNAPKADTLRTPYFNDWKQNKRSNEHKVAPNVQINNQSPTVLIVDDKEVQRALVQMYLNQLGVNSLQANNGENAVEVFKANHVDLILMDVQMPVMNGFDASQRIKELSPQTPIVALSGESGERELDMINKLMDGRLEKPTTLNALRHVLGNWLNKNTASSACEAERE

LuxN^H210T = target: T2, LuxN^H210T (Vibrio campbellii, UniProt A7MRY4, H210T); test: Bioluminescence of V. harveyi XK006 carrying luxN H210T; format: cell-based, Vibrio harveyi; settings: 1 μM AHL
T2 sequence (A7MRY4 1-849 H210T): T1 sequence (A7MRY4 1-849 H210Q) with Q210T

luxN^S184I/S230P = target: T3, luxN^S184I/S230P (Vibrio campbellii, UniProt A7MRY4, S184I/S230P); test: Bioluminescence of V. harveyi XK006 carrying luxN S184I/S230P; format: cell-based, Vibrio harveyi
T3 sequence (A7MRY4 1-849 S184I/S230P): T1 sequence (A7MRY4 1-849 H210Q) with S184I, Q210H, S230P

WT LuxN = WT LuxN (Vibrio campbellii, UniProt A7MRY4); settings: 100 nM AI-1; XK847

`C[C@@H](O)CC(=O)N[C@H]1CCOC1=O` [3OH-C4 HSL, N-((R)-3-hydroxybutanoyl)-L-homoserine lactone] was tested, and the “induction of light production” value (LuxN^H210Q) was 50 fold, the “response (light production)” value (LuxN^H210T) was “modest response” and the “response (dose-dependent light production)” value (luxN^S184I/S230P) was “most potent agonist”. For the same compound, the “increase in light production” value (WT LuxN) was 1000 fold.
